Key:
[1] = test system: Lewis lung cancer mouse xenografts; design: method as in PMID 15711557, PMID 16166276; conditions: transplanted Lewis lung cancer mouse xenografts; cited from earlier work
[2] = design: method as in PMID 17234791; conditions: combined with cyclophosphamide; compared among forms of 1-methyl-tryptophan; cited from earlier work
[3] = Plasma pharmacokinetics (LC-MS/MS, non-compartmental); type: in vivo, human
Protocol: A validated liquid chromatography triple-quadrupole with tandem mass spectrometry method was used to determine levels of indoximod in plasma. The methods were validated per International Conference on Harmonization/Food and Drug Administration guidelines. Plasma samples were prepared for chromatographic injections by protein precipitation as described in Supplement 1.
Plasma concentration-time data for indoximod were analyzed by non-compartmental pharmacokinetic methods using Phoenix WinNonlin 6.3 (Pharsight Corp., Mountain View, CA). Data in the terminal, log-linear phase were analyzed by linear regression to estimate terminal elimination rate constant and half-life. These additional pharmacokinetic parameters were also determined: AUC0-48, AUC0-inf, Cmax, Tmax, terminal half-life (t1/2), apparent clearance, and apparent volume of distribution.

[4] = test system: C-reactive protein; test: C-reactive protein levels; type: in vivo, human
Description: Physical examinations, autoimmunity evaluations, complete blood counts, metabolic panels, and C-reactive protein levels were obtained at baseline and every 2 weeks. Pituitary function tests (thyroid-stimulating hormone, free T4, luteinizing hormone, follicular stimulating hormone, and adrenocortical hormone) and anti-nuclear autoantibody titers were obtained at baseline and every 4 weeks.

[5] = test system: IDO; test: Plasma kynurenine/tryptophan pharmacodynamics (HPLC); type: in vivo, human
Protocol: (§1) Plasma kynurenine and tryptophan levels were measured via high-performance liquid chromatography at baseline and during weeks 1-4 of treatment using previously published methods. Humoral responses toward multiple cancer-testis antigens were analyzed by a proprietary whole protein microarray (Serametrix, Carlsbad, CA) in a 200-μL plasma aliquot, collected at blood draws at baseline and at week 5. Autoantibody titers were reported as relative fluorescence units using human anti-IgG reporter antibodies with blank and predetermined IgG antibody titer control spots using a Perkin Elmer fluorescence scanner.

[6] = test system: circulating T cell populations; test: T-cell flow cytometry panel on patient blood; type: in vivo, human
Description: At weeks 1, 3, 5, and 7 of treatment, patient blood was collected into 3 heparinized 10-mL Vacutainer tubes. Samples underwent Ficoll separation and cryopreservation for subsequent analyses. A total of 16 patients across dose levels 4-10 had satisfactory samples collected at all 4 time points for multiparameter flow analyses (see Table 1 for definition of dose levels). Flow cytometry analyses using a T-cell panel (CCR6-FITC, CD45RO-PerCP-Cy5, CD45RA-BV421, HLADR-BV650, CD4-PE, CD25-PECy7, CD127-Alexa 647, CD3- BUV395, Live/Dead Aqua, CD8-BUV737) to determine changes in circulating levels of T-regulatory cells (CD4+CD25+CD127low), naïve (CD45RA+) versus memory (CCR6+/−CD45RO+) CD4 and CD8 T cells, and activated T-cell subsets (HLA-DR+) were carried out in the Moffitt Flow Cytometry Core on an LSRII with compensation beads and fluorescence minus one controls. Gating was done using fluorescence minus one thresholds, and analyses were done using FloJo X software. Mean percentages of the populations were calculated from single, live, CD3+-gated events and analyzed across the 4 time points for the entire group, with lower (dose levels 4-8) versus higher (dose levels 9-10) dose levels compared using ANOVA in Prism GraphPad. P levels of 0.05 indicated significance.

[7] = test system: advanced solid tumors; test: Response evaluation by RECIST 1.1; type: in vivo, human
Protocol: Overall response rate was determined via the criteria described by the RECIST 1.1 guidelines. Baseline evaluations were conducted within 14 days before start of therapy, with CT scans performed within 4 weeks before start of therapy. Patients were then reevaluated every 8 weeks with diagnostic CT scans. The best overall response achieved during study therapy was recorded for each patient. The response data presented herein underwent site radiology review. The duration of response was measured from the time criteria were met for complete or partial response until the first date that recurrent or progressive disease was documented.

[8] = test system: 30 different tumor-associated antigens; test: Autoantibody titers to tumor-associated antigens (Serametrix protein microarray); type: in vivo, human; conditions: week 5; of 40 patients evaluated; P < 0.05
Protocol: as §1

Cn1cc(CC(N)C(=O)O)c2ccccc21 (racemic) [1-methyl-DL-tryptophan]
effect on tumor growth [1]: delaying growth

Cn1cc(C[C@@H](N)C(=O)O)c2ccccc21 [indoximod, 1-methyl-D-tryptophan]
in vivo antitumor activity [2]: superior
half-life ([3]; human, plasma, po): 630 min
Cmax ([3]; human, plasma, 2000 mg twice/day oral): ~12 µM
dose range with linear dose response of AUC and Cmax ([3]; oral): up to 800 mg once daily
single doses with plateauing of peak serum levels ([3]; oral): ≥ 1600 mg
drug renally cleared ([3]; patients): 20%
oral bioavailability ([3]; patients): good
time at which Cmax occurred ([3]; plasma, oral): 2.9 h
anticipated therapeutic dose of 10 to 15 μM ([3]; serum drug level with current dosing schedules): reached
C reactive protein (CRP) levels ([4]; across multiple dose levels): increased
mean level of C-reactive protein ([4]; week 3 of treatment, baseline 3.81 mg/dL, P = 0.02): 5.13 mg/dL
effect on circulating kynurenine levels [5]: lack of effect
changes in T cell populations (Treg, naive/memory CD4 and CD8, activated subsets) ([6]; baseline through week 7, group as a whole): did not identify any statistically significant changes
dose-dependent changes in T cell populations ([6]; higher dose levels versus lower dose levels): no detectable dose-dependent changes
patients with stable disease >6 months ([7]; of 48 patients): 5
single-agent antitumor activity ([7]; patients with advanced solid tumors): modest
best response ([7]; site radiologist assessment, RECIST 1.1): stable disease
patients with significantly higher autoantibody titers than at baseline [8]: 12

Source: paper PMC5008412, “A phase I study of indoximod in patients with advanced malignancies” (Oncotarget, 2016)
